{
  "source": "patent US20040121474A1",
  "about": "“Detection and evaluation of chemically-mediated and ligand-mediated t-cell activation using optophoretic analysis” (Genoptix, Inc, priority 2002, published 2004)",
  "assay_type_in_all_cases": "cell-based",
  "key": {"HL-60 cells [1]": {"system": "HL-60 cells", "assay": "Escape velocity, differentiation of HL-60 cells", "settings": "200 ng/ml PMA", "procedure": "Initial tests were performed using HL-60 cells treated with PMA. HL-60 cells were seeded at about 1-3×10^6 cells per well in six well plates. The cells were treated with 200 ng/ml PMA while the control cells were treated with ethanol (EtOH) vehicle for four hours at 37° C. After incubation for four hours the treated cells were washed with PBS and re-fed with growth media. The treated HL-60 cells were then allowed to differentiate for 72 hours in normal growth media. After the 72 hour period, the untreated control cells were collected by centrifugation, washed with PBS and pelleted for resuspension at 1.5×10^6 cells/ml in PBS/1% BSA. Treated cells were trypsinized and collected by centrifugation then washed in PBS and pelleted for resuspension at 1×10^6 cells/ml in PBS/1% BSA. The cells were then subjected to Optophoretic analysis by measuring the escape velocities of the treated and control cells. Table 23 shown below illustrates the measured escape velocities of the undifferentiated and differentiated cells at 72 hours post treatment."}, "U937 cells [2]": {"system": "U937 cells", "assay": "Escape velocity of PMA-treated U937 cells, time course", "procedure": "PMA was dissolved in ethanol at a concentration of 5 mg/mL. 3 mls of U937 cells grown in RPMI 1640 media with supplements were removed from the culture flask and 1 ml was placed into each of three eppendorf tubes. Cells from the first tube were pelleted for 4 minutes at 10,000 rpm and resuspended in 250 uL PBS/1% BSA buffer for escape velocity measurements. […] These tubes were vortexed and placed in a 37° C. water bath for either one hour or six hours. At the end of the time point, the tube was removed, cells were pelleted and then resuspended as described above and escape velocity measurements taken.\nThe preferred method of performing cellular interrogation is through optical interrogation which includes determining the optophoretic properties of the cell(s). The optophoretic properties of the cell(s) can be determined in any number of ways. In one preferred embodiment, the escape velocity of cell(s) is used to determine the optophoretic properties. The escape velocity (measured typically in μm/sec) is defined as the minimum speed at which an interrogated cell no longer tracks the moving optical gradient.\nThe objective of this experiment is to compare the escape velocities of U937 cells that have been treated with the phorbol ester, phorbol 12 myristate 13-acetate (PMA), to the escape velocity of untreated U937 cells. PMA activates the Protein Kinase C pathway and may cause the cells to go into rapid cell differentiation, which may be indicated by a shift in escape velocity. The effect of PMA activation was tested at three timepoints: no activation, 1 hour of activation, and 6 hours of activation. At the end of the activation period, the cells were centrifuged for 4 minutes at 10,000 rpm. […] The cells were then centrifuged again and resuspended in buffer. The escape velocity and the cell size of cells from each tube were then calculated."}, "[3]": {"system": "CD11b expression in HL-60 cells", "assay": "FACS CD11b expression profile", "settings": "400 ng/ml PMA", "procedure": "(§1) Fast scan analysis was also performed on HL-60 cells that were treated with PMA and DMSO. A time course evaluation of PMA treated HL-60 cells was performed with fast scan data taken at 16 hours, 24 hours, 40 hours, and 72 hours post-treatment with 400 ng/ml PMA. A control sample of HL-60 cells was also tested using EtOH as the vehicle for purposes of comparing the differentiated cells with the undifferentiated HL-60 cells. The PMA-treated and control cells were harvested and trypsinized. The samples were then resuspended in PBS/1% BSA. A set of samples was also obtained and left as pellets at 4° C. for subsequent FACS analysis.\nFIG. 145 illustrates a histogram of the travel distance of the control cells as well as the PMA-treated cells at 16 hours, 24 hours, 40 hours, and 72 hours post-treatment. FIG. 146 illustrates the mean travel distances of the control cells as well as the PMA-treated cells at 16 hours, 24 hours, 40 hours, and 72 hours post-treatment. FIG. 147 illustrates the FACS CD11b expression profile in PMA-treated HL-60 cells as well as the control. CD11b is a known marker of cellular differentiation and is expressed on the surface of differentiating cells. […] The data illustrate that Optophoretic analysis can be used as an assay for the detection and quantification of cellular differentiation. […]"}, "HL-60 cells [4]": {"system": "HL-60 cells", "assay": "Fast scan analysis, differentiation of HL-60 cells", "settings": "400 ng/ml PMA, differentiation into monocytes/macrophages", "procedure": "as §1\nA time course evaluation of DMSO treated HL-60 cells was performed with fast scan data taken at 16 hours, 24 hours, 40 hours, and 70 hours post-treatment with 1% DMSO. A control sample of HL-60 cells was also tested for purposes of comparing the differentiated cells with the undifferentiated HL-60 cells. The DMSO-treated and control cells were then harvested and resuspended in PBS/1% BSA. A set of samples was also obtained and left as pellets at 4° C. for subsequent FACS analysis."}, "U937 cells [5]": {"system": "U937 cells", "assay": "Escape velocity, time and concentration dependence of PMA", "set-up": "Escape velocity Ave.: unit not given here", "procedure": "This experiment was conducted to test the effect of PMA concentration on the escape velocity of U937 cells. PMA concentrations of 10 ng/ml, 1 ng/ml, 100 pg/ml, 10 pg/ml and 1 pg/ml were tested. The control sample received EtOH and not PMA.\nThe PMA concentration was tested at three timepoints: 1 hour, 3 hours and 5 hours. At each timepoint, 300 μl of cells were removed from each flask. The cells were then spun for 5 minutes at 5000 rpm. The cells were then resuspended in […] PBS/1% BSA and […] of trypan blue."}},
  "data": [
    {"smiles": "CCCCCCCCCCCCCC(=O)O[C@@H]1[C@@H](C)[C@@]2(O)[C@@H](C=C(CO)C[C@]3(O)C(=O)C(C)=C[C@@H]23)[C@@H]2C(C)(C)[C@]12OC(C)=O", "note": "[PMA, phorbol 12 myristate 13-acetate]", "values": [
      {"measurement": "Escape velocity Average", "setting": "HL-60 cells [1]; HL-60 + PMA at 72 hours (differentiated), control 11.9", "result": 14.0, "unit": "μm/sec"},
      {"measurement": "increase in measured escape velocity as compared to the control cells", "setting": "HL-60 cells [1]; HL-60 cells, 72 hours", "result": "about 2 μm/se c"},
      {"measurement": "distribution of escape velocities (FIG. 31)", "setting": "U937 cells [2]; 0.01 μg/ml PMA, 6 and 9 hours post treatment", "result": "clear trend toward higher escape velocities over time"},
      {"measurement": "escape velocity as compared to the untreated cells", "setting": "U937 cells [2]; 5 ug/mL PMA, 6 hours", "result": "significantly higher escape velocity"},
      {"measurement": "Escape velocity Average", "setting": "U937 cells [2]; 1 hour of PMA activation", "result": 15.3, "unit": "μm/sec"},
      {"measurement": "Escape velocity Average", "setting": "U937 cells [2]; 6 hours of PMA activation", "result": 28.0, "unit": "μm/sec"},
      {"measurement": "time after treatment at which a noticeable change in CD11b expression levels was observed", "setting": "[3]", "result": "about 40 hours"},
      {"measurement": "time after treatment at which Optophoretic analysis detected cellular differentiation", "setting": "HL-60 cells [4]", "result": "≤ 16", "unit": "h"},
      {"measurement": "Escape velocity Ave.", "setting": "U937 cells [5]; 10 pg/ml PMA, 1 Hour Activation", "result": 14.4},
      {"measurement": "Escape velocity Ave.", "setting": "U937 cells [5]; 10 pg/ml PMA, 3 Hour Activation", "result": 14.5},
      {"measurement": "Escape velocity Ave.", "setting": "U937 cells [5]; 10 pg/ml PMA, 5 Hour Activation", "result": 14.1},
      {"measurement": "Escape velocity Ave.", "setting": "U937 cells [5]; 100 pg/ml PMA, 1 Hour Activation", "result": 14.4},
      {"measurement": "Escape velocity Ave.", "setting": "U937 cells [5]; 100 pg/ml PMA, 3 Hour Activation", "result": 15.5},
      {"measurement": "Escape velocity Ave.", "setting": "U937 cells [5]; 100 pg/ml PMA, 5 Hour Activation", "result": 16.1},
      {"measurement": "Escape velocity Ave.", "setting": "U937 cells [5]; 1 ng/ml PMA, 1 Hour Activation", "result": 14.3},
      {"measurement": "Escape velocity Ave.", "setting": "U937 cells [5]; 1 ng/ml PMA, 3 Hour Activation", "result": 15.1},
      {"measurement": "Escape velocity Ave.", "setting": "U937 cells [5]; 1 ng/ml PMA, 5 Hour Activation", "result": 16.5},
      {"measurement": "Escape velocity Ave.", "setting": "U937 cells [5]; 10 ng/ml PMA, 1 Hour Activation", "result": 14.8},
      {"measurement": "Escape velocity Ave.", "setting": "U937 cells [5]; 10 ng/ml PMA, 3 Hour Activation", "result": 15.2},
      {"measurement": "Escape velocity Ave.", "setting": "U937 cells [5]; 10 ng/ml PMA, 5 Hour Activation", "result": 16.2},
      {"measurement": "Optophoretic difference (escape velocity)", "setting": "U937 cells [5]; two lowest concentrations, 10 pg/ml and 1 pg/ml", "result": "no Optophoretic difference"}
    ]}
  ]
}
